# Source: the SangsterLogP compilation
# Assay: method code SF-AS, from PMID: 8295915
row,SMILES,logP
1,CCNc1nc(C)c(C(=O)CCN2CCOCC2)s1,1.43
2,CCNc1nc(C)c(C(=O)CCN2CCCCC2)s1,2.66
3,CCN(CC)CCC(=O)c1sc(N)nc1C,1.76
4,Cc1nc(N)sc1C(=O)CCN1CCCC1,1.74
5,Cc1nc(N)sc1C(=O)CCN1CCOCC1,0.82
6,Cc1nc(N)sc1C(=O)CCN1CCCCC1,2.13
7,CNc1nc(C)c(C(=O)CCN2CCCC2)s1,1.86
8,CNc1nc(C)c(C(=O)CCN2CCOCC2)s1,0.95
9,CNc1nc(C)c(C(=O)CCN2CCCCC2)s1,2.21
10,CCNc1nc(C)c(C(=O)CCN(CC)CC)s1,2.72
11,CNc1nc(C)c(C(=O)CCN(C)C)s1,1.58
12,Cc1nc(N)sc1C(=O)CCN(C)C,1.47
13,CCNc1nc(C)c(C(=O)CCN(C)C)s1,2.21
